{
  "source": "paper PMC8701324",
  "about": "“Structural Insight into the Mechanism of PALB2 Interaction with MRG15” (Genes, 2021)",
  "key": {"MRG15^155−323": {"test_system": "MRG15^155−323", "experiment": "Ni-NTA pull-down of MRG15 by 6xHis-tagged PALB2 peptides", "format": "binding", "details": "preliminary qualitative experiment; Ni-NTA agarose, SDS-PAGE", "procedure": "Ni-NTA beads (200 µL of 50% slurry) were equilibrated with Buffer B (25 mM HEPES pH 7.5, 10% glycerol, 2 mM CHAPS and 300 mM NaCl). 1 mL of PALB2 peptide at concentration 0.1 mg·mL^−1 was bound to Ni-NTA beads, and excess peptides were washed off with Buffer B (1 mL). A total of 1 mL of 0.1 mg·mL^−1 MRG15^155−323 was added to the beads and incubated for 30 min. Beads were washed 3 times with Buffer B with 20 mM imidazole. Protein complexes were eluted with Buffer B with 250 mM imidazole. MRG15^155−323 alone, mixed with Ni-NTA beads without any peptide bound, was used as control to eliminate non-specific binding. Samples were analyzed by SDS-PAGE.\nProteins interact with the MRG domain through a conserved FxLP motif. All known structures of MRG complexes reveal significant contributions to the binding of extended regions up- and downstream of the FxLP motif. Flanking regions have low sequence and structural conservation, making it challenging to predict which regions of PALB2 around the FQLP sequence motif (amino acids 612–615) are involved in the interaction. […] The binding affinity of this peptide to MRG15 was measured using the polarization anisotropy method with fluorescein-labeled PALB2^597−630 peptide (FAM-PALB2, Genscript Biotech, Piscataway, NJ, USA). […]"}, "[1]": {"target": "T1, MRG15^155−323 (MRG domain) (Homo sapiens, UniProt Q9UBU8)", "T1 construct": "The MRG15 MRG domain, encompassing amino acids 155–323, was cloned into the pET28b^+-based pSMT3 vector; 6xHis-SUMO (N, cleaved yes); made in house; host or cells: E. coli BL21*", "T1 sequence (Q9UBU8 194-362)": "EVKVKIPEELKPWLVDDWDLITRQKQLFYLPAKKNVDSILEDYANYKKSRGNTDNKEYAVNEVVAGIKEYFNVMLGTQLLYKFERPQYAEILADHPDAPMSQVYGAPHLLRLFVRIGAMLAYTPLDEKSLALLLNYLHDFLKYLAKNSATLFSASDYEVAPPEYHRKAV", "experiment": "Fluorescence anisotropy binding of FAM-PALB2 peptide", "procedure": "Fluorescence anisotropy binding and competition assays were performed using black 384-well plates (Corning Inc., Corning, NY, USA) and a Synergy Neo2 plate reader (BioTek, Winooski, VT, USA). Binding assays were conducted by serially diluting the MRG15 fragment from 10 µM to 0.6 nM. A 40 µL solution of 20 µM MRG was serially diluted in 20 µL of 25 mM HEPES pH8.0, 1 mM TCEP, 10% DMSO, and 200 mM NaCl. A total of 20 µL of a 20 nM FAM-PALB2^597−630 solution was then added to each well for a final reaction volume of 40 µL and a final PALB2 concentration of 10 nM. The plate was shaken for 2 min and incubated for 15 min. Fluorescence anisotropy was measured with 485/20 nm excitation and 528/20 nm emission using Gen5.0 (BioTek) software. Kd was calculated with GraphPad Prism software by fitting the data with a non-linear regression analysis using a standard four-parameter logistic equation to identify Kd. […] R^2 is determined by the Prism software by computing the sum of the squares of the distances of the points from the best-fit curve determined by a nonlinear regression model.\nProteins interact with the MRG domain through a conserved FxLP motif. […] The binding affinity of this peptide to MRG15 was measured using the polarization anisotropy method with fluorescein-labeled PALB2^597−630 peptide (FAM-PALB2, Genscript Biotech, Piscataway, NJ, USA). […]"}, "MRG15 (MRG domain)": {"target": "T2, MRG15 (MRG domain) (Homo sapiens, UniProt Q9UBU8)", "T2 construct": "The MRG15 MRG domain, encompassing amino acids 155–323, was cloned into the pET28b^+-based pSMT3 vector; 6xHis-SUMO (N, cleaved yes); made in house; host or cells: E. coli BL21*", "T2 sequence (Q9UBU8 194-362)": "as above", "experiment": "Fluorescence anisotropy competition assay: displacement of WT FAM-PALB2", "format": "binding", "details": "competition with WT FAM-PALB2, relative to WT", "procedure": "For competition assays, mutant PALB2^597−630 peptides (Genscript Biotech, Piscataway, NJ, USA) were dissolved in DMSO and serially diluted from 10 µM to 0.6 nM in 20 µL of 25 mM HEPES pH 8.0, 1 mM TCEP, 10% DMSO, and 200 mM NaCl. A total of 40 nM MRG15 was mixed with 10 nM PALB2-FAM and incubated for 15 min at room temperature (RT). 20 µL of the MRG15 with FAM-PALB2 was then added to each well, resulting in a final concentration of […]. The total reaction volume was 40 µL. The plate was then shaken for 2 min and incubated for 15 min before the fluorescence anisotropy was measured as above. The inhibition constant Ki was calculated similarly to Kd (above).\nMutations of several residues in the MRG-binding region of PALB2 were found in breast cancer patients, including Asp616His, Pro615Ser and Pro621Thr mutations (Figure 5A,B). We analyzed the effect of these mutations on PALB2 interaction with MRG by a competition assay (Figure 5C,D). An MRG complex with 10 nM WT PALB2 peptide was formed, and the comparative affinity of mutants (Ki) was assayed by the dissociation rate of FAM-PALB2 from MRG15 upon titration by a mutant peptide. In addition, the contribution of core hydrophobic amino acids was assayed by alanine substitution. None of the peptides with a core hydrophobic amino acid substitution were able to compete with wtPALB2 binding. […] Substitution of Asp616 with histidine reduced the affinity by a factor of 2. […] Substitution of this proline in the middle of an α-helical turn may increase flexibility and result in a tighter binding of αH2 to the hydrophobic pocket of MRG."}},
  "note": "Where no end group is shown, it is not given here. The star is where a group is joined. 6xHis = N-terminal hexahistidine tag, N[C@@H](Cc1c[nH]cn1)C(=O)N[C@@H](Cc1c[nH]cn1)C(=O)N[C@@H](Cc1c[nH]cn1)C(=O)N[C@@H](Cc1c[nH]cn1)C(=O)N[C@@H](Cc1c[nH]cn1)C(=O)N[C@@H](Cc1c[nH]cn1)C(=O)*",
  "data": [
    {"substance": "597 630: PALB2 fragment encompassing amino acids 597–630 with the N-terminal 6xHis tag; crystallized with MRG15 (PDB ID 7S4A) (6xHis-MLSLKQLLSFLSITDFQLPDEDFGPLKLEKVKSC)", "values": [
      {"measurement": "complex formation with MRG15 in pull-down", "setting": "MRG15^155−323", "value": "sufficient for the formation of a stable complex"},
      {"measurement": "binding affinity to MRG domain", "setting": "[1]", "value": "nanomolar affinity"}
    ]},
    {"substance": "MLSLKQLLSFLSITDFQLPDEDFGTLKLEKVKSC [P621T]", "values": [
      {"measurement": "effect on binding affinity", "setting": "MRG15 (MRG domain)", "value": "increased the binding affinity"}
    ]},
    {"substance": "MLSLKQLLSFLSITDFQLPHEDFGPLKLEKVKSC [D616H]", "values": [
      {"measurement": "factor by which affinity is reduced vs WT", "setting": "MRG15 (MRG domain); 'by a factor of'", "value": 2}
    ]},
    {"substance": "MLSLKQLLSFLSITDFQLSDEDFGPLKLEKVKSC [P615S]", "values": [
      {"measurement": "reduction in binding affinity vs WT", "setting": "MRG15 (MRG domain)", "value": 5, "unit": "fold"}
    ]}
  ]
}
